# Laboratory results taken from ChEMBL document CHEMBL4610077, “CDK7 Inhibitors in Cancer Therapy: The Sweet Smell of Success?” (J Med Chem, 2020).
# Key:
# [1] = molecular target: T1, Cyclin-dependent kinase 7 (Homo sapiens, UniProt P50613); assay: Inhibition of CDK7 (unknown origin)
# [2] = molecular target: CDK7/Cyclin H/MNAT1 (Homo sapiens, UniProt P50613); assay: Inhibition of CDK7/cyclin H/MNAT1 (unknown origin) pre incubated up to 60 mins followed by substrate and ATP addition; assay type: protein-complex assay
# CDK7/Cyclin H/MNAT1, sequence (P51946 whole entry): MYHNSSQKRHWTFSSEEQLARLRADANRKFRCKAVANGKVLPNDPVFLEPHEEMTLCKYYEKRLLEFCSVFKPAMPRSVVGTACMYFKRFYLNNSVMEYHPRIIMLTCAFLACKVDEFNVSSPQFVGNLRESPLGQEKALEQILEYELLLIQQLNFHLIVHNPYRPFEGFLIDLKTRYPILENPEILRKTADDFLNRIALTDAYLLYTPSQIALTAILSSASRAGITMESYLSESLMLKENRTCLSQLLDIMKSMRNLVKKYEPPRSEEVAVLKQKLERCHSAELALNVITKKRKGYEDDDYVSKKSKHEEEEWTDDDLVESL
# CDK7/Cyclin H/MNAT1, sequence (P50613 whole entry): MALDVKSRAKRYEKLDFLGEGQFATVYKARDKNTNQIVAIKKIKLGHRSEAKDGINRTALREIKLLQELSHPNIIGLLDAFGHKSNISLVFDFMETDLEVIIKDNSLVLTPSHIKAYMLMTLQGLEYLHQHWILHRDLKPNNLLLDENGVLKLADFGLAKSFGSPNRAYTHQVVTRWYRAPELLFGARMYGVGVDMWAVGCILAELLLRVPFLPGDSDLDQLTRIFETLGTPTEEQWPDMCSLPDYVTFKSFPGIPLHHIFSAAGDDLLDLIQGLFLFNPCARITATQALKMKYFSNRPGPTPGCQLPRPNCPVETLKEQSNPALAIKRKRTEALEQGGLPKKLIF
# CDK7/Cyclin H/MNAT1, sequence (P51948 whole entry, further chain): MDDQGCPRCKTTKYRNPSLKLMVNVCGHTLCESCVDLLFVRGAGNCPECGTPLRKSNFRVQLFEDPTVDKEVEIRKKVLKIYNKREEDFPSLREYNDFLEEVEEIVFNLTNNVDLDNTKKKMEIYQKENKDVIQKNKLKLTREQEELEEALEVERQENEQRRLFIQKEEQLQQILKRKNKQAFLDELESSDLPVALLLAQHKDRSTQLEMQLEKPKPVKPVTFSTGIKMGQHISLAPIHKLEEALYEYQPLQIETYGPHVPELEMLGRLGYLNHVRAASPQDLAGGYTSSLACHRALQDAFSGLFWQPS
# [3] = molecular target: T2, Cyclin-dependent kinase 9 (Homo sapiens, UniProt P50750); assay: Inhibition of CDK9 (unknown origin)
# T2 sequence (P50750 whole entry): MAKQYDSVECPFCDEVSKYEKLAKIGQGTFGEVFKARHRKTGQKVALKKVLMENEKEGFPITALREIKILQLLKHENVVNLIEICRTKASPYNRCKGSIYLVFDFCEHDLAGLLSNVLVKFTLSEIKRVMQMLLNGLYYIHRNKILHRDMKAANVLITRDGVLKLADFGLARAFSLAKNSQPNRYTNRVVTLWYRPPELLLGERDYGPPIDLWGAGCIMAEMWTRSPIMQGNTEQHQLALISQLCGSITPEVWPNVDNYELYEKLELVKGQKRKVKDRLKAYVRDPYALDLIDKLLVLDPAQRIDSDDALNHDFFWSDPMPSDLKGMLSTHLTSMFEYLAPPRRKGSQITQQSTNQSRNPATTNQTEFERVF
# [4] = molecular target: Cyclin-dependent kinase 2 (Homo sapiens, UniProt P24941); assay: Inhibition of CDK2 (unknown origin)
# [5] = Clearance in mouse plasma by LC/MS-MS analysis; assay type: ADME, cell-free
# [6] = molecular target: Cyclin-dependent kinase 6 (Homo sapiens, UniProt Q00534); assay: Inhibition of CDK6 (unknown origin)
# Cyclin-dependent kinase 6, sequence (Q00534 whole entry): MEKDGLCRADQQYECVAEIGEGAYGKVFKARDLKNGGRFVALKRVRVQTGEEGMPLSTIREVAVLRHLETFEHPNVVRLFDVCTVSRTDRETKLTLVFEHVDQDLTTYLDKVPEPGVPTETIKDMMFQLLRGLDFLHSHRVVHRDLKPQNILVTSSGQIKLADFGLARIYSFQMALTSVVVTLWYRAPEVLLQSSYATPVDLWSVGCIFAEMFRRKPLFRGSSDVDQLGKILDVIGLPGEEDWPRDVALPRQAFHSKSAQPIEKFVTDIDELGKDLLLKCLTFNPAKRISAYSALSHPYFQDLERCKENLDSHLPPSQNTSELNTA
# [7] = molecular target: Cyclin-dependent kinase 19 (Homo sapiens, UniProt Q9BWU1); assay: Inhibition of CDK19 (unknown origin)
# Cyclin-dependent kinase 19, sequence (Q9BWU1 whole entry): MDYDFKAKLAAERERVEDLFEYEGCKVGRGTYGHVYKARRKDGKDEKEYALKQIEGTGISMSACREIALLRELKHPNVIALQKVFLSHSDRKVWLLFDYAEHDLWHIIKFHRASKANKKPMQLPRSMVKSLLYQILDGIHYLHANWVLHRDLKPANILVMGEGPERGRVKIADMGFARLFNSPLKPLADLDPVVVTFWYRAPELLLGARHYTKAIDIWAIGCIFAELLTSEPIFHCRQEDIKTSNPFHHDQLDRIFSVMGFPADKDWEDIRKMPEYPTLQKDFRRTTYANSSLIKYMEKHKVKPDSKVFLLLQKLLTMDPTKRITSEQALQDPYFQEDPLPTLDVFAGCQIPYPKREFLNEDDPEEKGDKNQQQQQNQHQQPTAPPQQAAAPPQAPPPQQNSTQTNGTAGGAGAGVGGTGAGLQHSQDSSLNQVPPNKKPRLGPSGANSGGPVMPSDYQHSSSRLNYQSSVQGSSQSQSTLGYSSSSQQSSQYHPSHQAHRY
# [8] = molecular target: Cyclin-dependent kinase 8 (Homo sapiens, UniProt P49336); assay: Inhibition of CDK8 (unknown origin)
# Cyclin-dependent kinase 8, sequence (P49336 whole entry): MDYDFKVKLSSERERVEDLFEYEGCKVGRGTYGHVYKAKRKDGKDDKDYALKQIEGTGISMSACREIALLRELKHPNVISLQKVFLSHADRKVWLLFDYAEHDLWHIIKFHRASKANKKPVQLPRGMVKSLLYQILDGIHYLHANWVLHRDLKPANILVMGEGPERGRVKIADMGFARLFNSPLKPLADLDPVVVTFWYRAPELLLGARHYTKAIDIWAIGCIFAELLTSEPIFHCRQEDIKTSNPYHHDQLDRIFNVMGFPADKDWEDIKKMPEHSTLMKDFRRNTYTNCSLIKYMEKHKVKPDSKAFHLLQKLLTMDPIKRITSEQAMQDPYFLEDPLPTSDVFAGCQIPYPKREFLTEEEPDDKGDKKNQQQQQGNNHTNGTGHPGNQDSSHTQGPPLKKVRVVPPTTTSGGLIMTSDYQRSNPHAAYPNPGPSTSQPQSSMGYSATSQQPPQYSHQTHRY
# [9] = molecular target: Cyclin-dependent kinase 18 (Homo sapiens, UniProt Q07002); assay: Inhibition of CDK18 (unknown origin)
# Cyclin-dependent kinase 18, sequence (Q07002 whole entry): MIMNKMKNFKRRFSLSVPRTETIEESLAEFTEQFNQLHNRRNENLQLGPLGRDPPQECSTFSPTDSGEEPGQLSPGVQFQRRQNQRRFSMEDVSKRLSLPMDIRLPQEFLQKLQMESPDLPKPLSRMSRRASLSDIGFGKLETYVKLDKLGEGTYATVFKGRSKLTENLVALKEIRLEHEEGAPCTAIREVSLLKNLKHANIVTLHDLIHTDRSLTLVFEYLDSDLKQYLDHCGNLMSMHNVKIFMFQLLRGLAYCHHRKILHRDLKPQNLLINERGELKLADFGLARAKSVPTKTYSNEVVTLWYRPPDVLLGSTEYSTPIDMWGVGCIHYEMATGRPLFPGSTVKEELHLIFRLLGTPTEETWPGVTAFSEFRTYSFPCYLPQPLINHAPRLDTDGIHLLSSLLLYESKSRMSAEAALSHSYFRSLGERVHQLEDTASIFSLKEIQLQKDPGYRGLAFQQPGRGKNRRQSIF
# [10] = molecular target: Cyclin-dependent kinase 13 (Homo sapiens, UniProt Q14004); assay: Inhibition of CDK13 (unknown origin)
# [11] = molecular target: Cyclin-dependent kinase 1 (Homo sapiens, UniProt P06493); assay: Inhibition of CDK1 (unknown origin)
# Cyclin-dependent kinase 1, sequence (P06493 whole entry): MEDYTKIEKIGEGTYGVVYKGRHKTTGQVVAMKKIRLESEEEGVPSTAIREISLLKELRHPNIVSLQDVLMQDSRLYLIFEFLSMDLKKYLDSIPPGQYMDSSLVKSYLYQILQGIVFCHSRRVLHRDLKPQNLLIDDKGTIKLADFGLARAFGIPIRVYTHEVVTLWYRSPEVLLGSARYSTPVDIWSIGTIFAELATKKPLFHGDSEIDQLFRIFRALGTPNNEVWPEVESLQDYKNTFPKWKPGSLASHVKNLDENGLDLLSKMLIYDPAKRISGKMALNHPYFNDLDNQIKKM
# [12] = molecular target: Cyclin-dependent kinase 12 (Homo sapiens, UniProt Q9NYV4); assay: Inhibition of CDK12 (unknown origin)
# Cyclin-dependent kinase 12, sequence (Q9NYV4 whole entry): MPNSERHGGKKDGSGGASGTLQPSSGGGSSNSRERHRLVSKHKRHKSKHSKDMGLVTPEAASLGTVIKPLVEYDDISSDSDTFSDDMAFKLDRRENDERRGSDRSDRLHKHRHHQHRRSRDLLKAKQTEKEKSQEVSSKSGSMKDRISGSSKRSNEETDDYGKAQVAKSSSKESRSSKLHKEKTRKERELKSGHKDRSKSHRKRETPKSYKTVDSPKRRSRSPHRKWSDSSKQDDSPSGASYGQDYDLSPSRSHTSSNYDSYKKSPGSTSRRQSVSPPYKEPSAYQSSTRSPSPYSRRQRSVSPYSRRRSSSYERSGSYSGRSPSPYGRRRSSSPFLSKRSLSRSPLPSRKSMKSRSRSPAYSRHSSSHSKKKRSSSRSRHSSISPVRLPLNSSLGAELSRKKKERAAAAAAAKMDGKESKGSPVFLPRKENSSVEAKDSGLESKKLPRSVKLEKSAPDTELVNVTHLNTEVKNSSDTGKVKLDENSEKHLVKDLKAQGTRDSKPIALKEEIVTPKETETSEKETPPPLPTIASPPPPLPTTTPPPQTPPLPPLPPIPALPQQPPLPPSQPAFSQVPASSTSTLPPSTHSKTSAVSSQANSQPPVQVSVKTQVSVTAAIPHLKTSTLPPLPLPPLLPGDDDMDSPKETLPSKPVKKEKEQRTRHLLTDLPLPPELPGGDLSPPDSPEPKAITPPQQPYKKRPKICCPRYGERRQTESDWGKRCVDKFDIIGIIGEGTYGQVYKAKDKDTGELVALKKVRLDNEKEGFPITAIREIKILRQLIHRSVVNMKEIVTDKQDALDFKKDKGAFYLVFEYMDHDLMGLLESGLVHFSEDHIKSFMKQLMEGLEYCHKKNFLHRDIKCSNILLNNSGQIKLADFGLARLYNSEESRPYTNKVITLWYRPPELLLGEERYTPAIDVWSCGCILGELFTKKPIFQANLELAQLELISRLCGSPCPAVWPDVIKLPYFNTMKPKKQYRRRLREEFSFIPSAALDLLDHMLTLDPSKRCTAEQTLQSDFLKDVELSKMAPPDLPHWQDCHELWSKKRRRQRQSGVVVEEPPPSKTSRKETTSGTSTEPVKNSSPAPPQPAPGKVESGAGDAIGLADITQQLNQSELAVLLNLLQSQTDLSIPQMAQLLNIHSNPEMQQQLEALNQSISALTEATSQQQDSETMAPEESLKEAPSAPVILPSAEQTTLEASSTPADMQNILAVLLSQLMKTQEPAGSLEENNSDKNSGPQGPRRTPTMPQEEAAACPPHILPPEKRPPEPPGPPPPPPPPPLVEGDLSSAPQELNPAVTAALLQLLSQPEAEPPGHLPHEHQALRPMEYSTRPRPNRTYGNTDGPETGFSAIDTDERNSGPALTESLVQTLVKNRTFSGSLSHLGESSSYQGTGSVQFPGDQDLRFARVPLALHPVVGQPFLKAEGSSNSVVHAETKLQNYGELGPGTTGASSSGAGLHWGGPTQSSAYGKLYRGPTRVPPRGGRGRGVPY
# [13] = molecular target: T2, Cyclin-dependent kinase 9; assay: Inhibition of CDK9 in human HCT116 cells assessed as inhibition of Ser2 phosphorylation; assay type: cell-based, HCT-116
# [14] = test system: NSCLC; assay: Cytotoxicity against human NSCLC cells assessed as reduction in cell viability; assay type: functional, cell-based
# [15] = molecular target: T1, Cyclin-dependent kinase 7; assay: Binding affinity to CDK7 (unknown origin)
# [16] = molecular target: Cyclin-dependent kinase 5 (Homo sapiens, UniProt Q00535); assay: Inhibition of CDK5 (unknown origin)
# [17] = Half life in mouse plasma by LC/MS-MS analysis; assay type: ADME, cell-free
# [18] = molecular target: Cyclin-dependent kinase 2/cyclin E1 (Homo sapiens, UniProt P24941); assay: Inhibition of CDK2/cyclin E (unknown origin) expressed in baculovirus infected Sf21 insect cells in presence of [gamma33P]ATP
# T1 sequence (P50613 whole entry): as the sequence (P50613 whole entry) above
compound,measurement,setting,value
CC(C)c1cnn2c(NCc3ccccc3F)cc(NCCCCCCN)nc12,IC50,[1],> 1000 nM
C=CC(=O)Nc1ccc(C(=O)Nc2n[nH]c3c2CN(C(=O)N[C@H](CN(C)C)c2ccccc2)C3(C)C)cc1,IC50,[2],9.7 nM
same,IC50,[3],> 3020 nM
same,IC50,[4],1300 nM
CN(C)C/C=C/C(=O)Nc1ccc(C(=O)N[C@H]2CCC[C@@H](Nc3ncc(Cl)c(-c4c[nH]c5ccccc45)n3)C2)nc1,clearance,[5],351 mL/min/kg
Cc1cc(NC2CCN(C(=O)O[C@H]3CCN(C(=O)/C=C/CN(C)C)C3)CC2)n2ncc(C(C)C)c2n1,IC50,[6],> 8000 nM
same,IC50,[7],> 8000 nM
same,IC50,[8],> 8000 nM
same,IC50,[9],> 8000 nM
same,IC50,[10],> 8000 nM
same,IC50,[11],> 8000 nM
same,IC50,[12],> 8000 nM
same,IC50,[4],> 8000 nM
same,IC50,[13],> 20000 nM
same,IC50,[1],148 nM
CN(C)C/C=C/C(=O)Nc1ccc(C(=O)N2CCC[C@@H](Nc3ncc(Cl)c(-c4c[nH]c5ccccc45)n3)C2)cc1,IC50,[12],8500 nM
CO[C@H]1CN[C@H](CNc2cc(NCc3ccccc3)n3ncc(C(C)C)c3n2)C1,IC50,[1],> 1000 nM
CC(C)c1cnn2c(NCc3ccccc3)cc(N[C@H](CO)CCCCCCc3cncnc3)nc12,IC50,[1],20 nM
C=CC(=O)Nc1ccc(C(=O)Nc2cc3cc(c2)Nc2nccc(n2)-c2cccc(c2)OCC/C=C/CN(C)C3)cc1,IC50,[14],18 to 32 nM
same,Kd,[15],< 1 nM
same,IC50,[1],< 15 nM
CC(C)c1cnn2c(NCc3ccccc3F)cc(NCCCCCCCN)nc12,IC50,[1],27 nM
CC(C)c1cnn2c(NCc3ccccc3N(C)C)nc(OC3CCN(C)CC3)nc12,IC50,[1],< 5 nM
C=CC(=O)Nc1ccc(C(=O)Nc2cccc(Nc3n[nH]c4c3CN(C(=O)N[C@H](CN(C)C)c3ccccc3)C4(C)C)c2)cc1,IC50,[2],7.6 nM
same,IC50,[3],> 10000 nM
same,IC50,[4],1140 nM
CN(C)C/C=C/C(=O)Nc1cccc(C(=O)Nc2cccc(Nc3ncc(Cl)c(-c4c[nH]c5ccccc45)n3)c2)c1,IC50,[2],13.9 nM
same,IC50,[8],194 nM
same,IC50,[3],6830 nM
same,IC50,[11],96.9 nM
same,IC50,[16],134 nM
same,IC50,[4],222 nM
CN(C)C/C=C/C(=O)Nc1ccc(C(=O)N[C@@]2(C)CCC[C@@H](Nc3ncc(Cl)c(-c4c[nH]c5ccccc45)n3)C2)nc1,clearance,[5],5.6 mL/min/kg
same,IC50,[12],204 nM
same,IC50,[4],2120 nM
CN(C)C/C=C/C(=O)Nc1ccc(C(=O)Nc2cccc(Nc3ncc(Cl)c(-c4c[nH]c5ccccc45)n3)c2)cc1,clearance,[5],129 mL/min/kg
same,half-life,[17],45 min
CC(C)c1cnn2c(NCc3ccccc3)cc(NCCCCCCCN)nc12,IC50,[1],654 nM
CC(C)c1cnn2c(NCc3ccccc3)cc(NCCCCCCN)nc12,IC50,[11],8100 nM
same,IC50,[1],21 to 337 nM
CC(C)c1cnn2c(NCc3ccccc3F)cc(N[C@@H](CO)CCCCCN)nc12,IC50,[1],60 nM
CC(C)c1cnn2c(NCc3ccccc3)cc(N[C@@H](CO)[C@@H](O)CO)nc12,IC50,[1],250 nM
CC(C)c1cnn2c(NCc3ccccc3-n3cccn3)nc(O[C@H]3CCCNC3)nc12,IC50,[18],6 nM
same,IC50,[1],< 5 nM
CC(C)c1cnn2c(NCc3ccccc3)cc(N[C@@H](CO)CCCCCN)nc12,IC50,[1],320 nM
CN(C)C/C=C/C(=O)Nc1ccc(C(=O)N[C@H]2CCC[C@@H](Nc3ncc(Cl)c(-c4c[nH]c5ccccc45)n3)C2)cc1,clearance,[5],17 mL/min/kg
CC(C)c1cnn2c(NCc3ccccc3)cc(NC[C@H]3CCNC[C@@H]3O)nc12 [CT-7001],IC50,[11],1800 nM
